The test system of assay [1] is T1, Receptor-type tyrosine-protein kinase FLT3 (Homo sapiens), P36888 [D835Y].
T1 sequence (whole entry): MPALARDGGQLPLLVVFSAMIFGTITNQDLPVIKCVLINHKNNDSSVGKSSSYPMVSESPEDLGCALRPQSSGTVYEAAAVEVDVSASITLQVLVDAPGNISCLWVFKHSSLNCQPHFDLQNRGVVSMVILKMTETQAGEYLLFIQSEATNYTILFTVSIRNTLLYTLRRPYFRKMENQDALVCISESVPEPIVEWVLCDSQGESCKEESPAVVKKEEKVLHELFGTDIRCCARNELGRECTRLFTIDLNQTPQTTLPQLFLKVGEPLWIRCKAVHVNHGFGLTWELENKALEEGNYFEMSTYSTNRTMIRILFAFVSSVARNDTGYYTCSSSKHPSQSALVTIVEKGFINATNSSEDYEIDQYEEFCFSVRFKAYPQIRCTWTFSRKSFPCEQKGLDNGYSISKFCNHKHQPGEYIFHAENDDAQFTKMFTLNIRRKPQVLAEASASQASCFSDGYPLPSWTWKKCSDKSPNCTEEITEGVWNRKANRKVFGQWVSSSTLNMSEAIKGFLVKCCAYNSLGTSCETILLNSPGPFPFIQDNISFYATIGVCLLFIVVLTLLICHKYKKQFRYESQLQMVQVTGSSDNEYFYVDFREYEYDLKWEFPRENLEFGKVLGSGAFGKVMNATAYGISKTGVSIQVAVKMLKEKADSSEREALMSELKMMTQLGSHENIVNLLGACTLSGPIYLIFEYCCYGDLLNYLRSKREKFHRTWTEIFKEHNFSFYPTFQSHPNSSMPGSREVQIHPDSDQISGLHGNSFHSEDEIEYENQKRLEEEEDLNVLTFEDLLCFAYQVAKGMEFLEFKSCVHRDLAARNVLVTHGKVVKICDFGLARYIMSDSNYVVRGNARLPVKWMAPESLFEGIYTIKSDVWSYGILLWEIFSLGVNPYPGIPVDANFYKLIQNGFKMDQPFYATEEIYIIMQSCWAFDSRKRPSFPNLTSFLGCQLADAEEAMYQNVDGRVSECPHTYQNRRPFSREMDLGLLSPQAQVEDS
Description: Selectivity interaction (Ambit KINOMEscan and KiNATiv profiling in Jurkat cells) EUB0000090b FLT3. Type of assay: cell-based. The note with it: at 1 µM.

Assay [2] concerns the target Casein kinase II subunit alpha' (Homo sapiens) (UniProt P19784). Put plainly: Selectivity interaction (KinomeScan (DiscoverX)) EUB0001619a CSNK2A2. Conditions: at 1 µM.
The target in assay [3] is T2, Serine/threonine-protein kinase TAO1 (Homo sapiens) (UniProt Q7L7X3).
T2 sequence (whole entry): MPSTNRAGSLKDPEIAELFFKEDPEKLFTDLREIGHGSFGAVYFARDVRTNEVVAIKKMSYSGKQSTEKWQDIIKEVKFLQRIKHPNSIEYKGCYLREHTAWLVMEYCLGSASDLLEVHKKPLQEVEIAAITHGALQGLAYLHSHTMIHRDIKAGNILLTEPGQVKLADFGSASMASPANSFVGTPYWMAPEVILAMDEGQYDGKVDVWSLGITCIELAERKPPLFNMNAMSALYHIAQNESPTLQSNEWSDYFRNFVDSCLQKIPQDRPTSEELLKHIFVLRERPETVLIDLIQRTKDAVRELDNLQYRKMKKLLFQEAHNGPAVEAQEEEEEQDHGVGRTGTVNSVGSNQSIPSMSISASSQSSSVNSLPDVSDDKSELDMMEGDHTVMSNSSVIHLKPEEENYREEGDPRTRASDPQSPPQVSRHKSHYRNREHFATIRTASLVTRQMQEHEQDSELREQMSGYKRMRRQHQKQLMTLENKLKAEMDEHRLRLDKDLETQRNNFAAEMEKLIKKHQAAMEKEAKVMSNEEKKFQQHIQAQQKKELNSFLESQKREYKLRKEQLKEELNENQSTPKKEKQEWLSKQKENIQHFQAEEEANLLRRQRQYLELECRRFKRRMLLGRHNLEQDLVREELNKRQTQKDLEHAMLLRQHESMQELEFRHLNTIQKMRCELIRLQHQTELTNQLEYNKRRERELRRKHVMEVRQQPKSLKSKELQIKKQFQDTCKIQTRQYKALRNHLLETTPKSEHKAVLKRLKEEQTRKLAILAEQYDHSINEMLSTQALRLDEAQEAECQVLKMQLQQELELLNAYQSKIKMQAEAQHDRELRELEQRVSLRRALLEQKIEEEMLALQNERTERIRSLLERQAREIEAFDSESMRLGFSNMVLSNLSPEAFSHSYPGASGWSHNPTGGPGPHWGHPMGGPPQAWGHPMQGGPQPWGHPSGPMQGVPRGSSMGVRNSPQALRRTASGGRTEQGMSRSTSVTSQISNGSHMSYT
Put plainly: Selectivity interaction (KinomeScan (DiscoverX)) EUB0001049a TAOK1. The note with it: at 1 µM.

Assay [4] deals with T3, Cyclin-dependent kinase-like 5 (Homo sapiens) (UniProt O76039).
T3 sequence (whole entry): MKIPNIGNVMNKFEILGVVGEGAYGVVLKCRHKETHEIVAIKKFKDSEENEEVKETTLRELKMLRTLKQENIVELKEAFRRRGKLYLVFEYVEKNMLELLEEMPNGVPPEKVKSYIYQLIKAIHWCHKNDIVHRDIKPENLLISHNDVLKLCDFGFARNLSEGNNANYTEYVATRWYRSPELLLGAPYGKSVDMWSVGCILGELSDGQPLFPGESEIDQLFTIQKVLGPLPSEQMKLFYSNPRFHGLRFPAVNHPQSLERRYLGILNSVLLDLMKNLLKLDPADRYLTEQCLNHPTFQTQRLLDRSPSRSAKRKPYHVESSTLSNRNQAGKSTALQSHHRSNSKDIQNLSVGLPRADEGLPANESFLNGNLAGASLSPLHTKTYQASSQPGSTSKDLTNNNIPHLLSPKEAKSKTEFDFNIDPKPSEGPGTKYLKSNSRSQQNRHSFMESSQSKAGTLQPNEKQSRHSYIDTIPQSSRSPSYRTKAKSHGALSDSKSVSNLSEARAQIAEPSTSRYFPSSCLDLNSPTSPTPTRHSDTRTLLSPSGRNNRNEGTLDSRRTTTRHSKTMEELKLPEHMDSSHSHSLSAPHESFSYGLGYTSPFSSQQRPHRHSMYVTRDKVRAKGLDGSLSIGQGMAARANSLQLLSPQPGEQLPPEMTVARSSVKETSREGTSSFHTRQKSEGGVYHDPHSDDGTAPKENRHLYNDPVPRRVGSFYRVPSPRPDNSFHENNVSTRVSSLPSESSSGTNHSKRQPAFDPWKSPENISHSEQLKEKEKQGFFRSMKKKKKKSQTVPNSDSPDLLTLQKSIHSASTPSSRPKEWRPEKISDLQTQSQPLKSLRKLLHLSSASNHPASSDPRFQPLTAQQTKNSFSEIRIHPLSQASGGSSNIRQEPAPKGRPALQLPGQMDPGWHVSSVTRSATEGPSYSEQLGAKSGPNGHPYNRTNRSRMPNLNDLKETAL
Put plainly: Selectivity interaction (KinomeScan (DiscoverX)) EUB0000045b CDKL5.

Data on 4 compounds can be found in ChEMBL document CHEMBL5465560, “Selectivity Literature for EUbOPEN Chemogenomic Library” (2024).

Each structure is given as a SMILES string.

Casein kinase II subunit alpha' (Homo sapiens), sequence (P19784 whole entry, looked up): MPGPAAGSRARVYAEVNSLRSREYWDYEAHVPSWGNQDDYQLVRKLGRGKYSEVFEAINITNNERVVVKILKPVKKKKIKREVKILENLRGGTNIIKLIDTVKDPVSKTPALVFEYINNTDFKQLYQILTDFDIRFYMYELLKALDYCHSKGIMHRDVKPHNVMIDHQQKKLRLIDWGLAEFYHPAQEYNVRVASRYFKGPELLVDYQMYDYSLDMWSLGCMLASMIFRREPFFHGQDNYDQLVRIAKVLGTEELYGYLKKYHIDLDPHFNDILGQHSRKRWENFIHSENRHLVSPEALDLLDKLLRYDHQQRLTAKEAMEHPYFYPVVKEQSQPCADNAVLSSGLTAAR

In assay [1], `CN(C)C/C=C/C(=O)Nc1ccc(C(=O)N2CCCC(Nc3ncc(Cl)c(-c4c[nH]c5ccccc45)n3)C2)cc1` (stereo not given) yielded a % of control of 76%.

As for `N#Cc1cccc(-c2c[nH]c3ncnc(N4CCOCC4)c23)c1`, in assay [2], the % of control was determined as 45%.

In assay [3], `COc1cc(Nc2nc(C)cc(-c3cnn4nc(OC)ccc34)n2)cc(C(F)(F)F)c1` returned a % of control of 96%.

Take `C=CC(=O)Nc1cc(-n2c(=O)ccc3cnc4ccc(-c5ccc(NS(C)(=O)=O)cc5)cc4c32)ccc1C`: the figures for the % of control in assay [4] (at 1 µM) and in assay [4] (at 10 µM) were 100% and 81%, respectively.
